Source: article PMC12102759 (Protein Science : A Publication of the Protein Society, 2025)
Like-named read-outs stand apart in the source and are kept apart here.

Tested on: PABPC1 PABC
Format: binding, human
Conditions: DMS-BM library, bait PABPC1 PABC, row aa = residue at this position; for DMS-derived PSSM value (averaged), position E8: E = wild type
[1] = prey ATXN2, peptide KSTLNPNAKEFNPRSF, N = wild type
[2] = prey ATXN2, TLNPNAKEFNPRSF(averaged) over the two overlapping peptides, R = wild type
[3] = prey ATXN2, TLNPNAKEFNPRSF(averaged) over the two overlapping peptides
[4] = prey ATXN2, peptide TLNPNAKEFNPRSFSQ, P = wild type
[5] = prey ATXN2, TLNPNAKEFNPRSF(averaged) over the two overlapping peptides, P = wild type
[6] = prey ATXN2, peptide TLNPNAKEFNPRSFSQ, N = wild type
[7] = prey ATXN2, peptide TLNPNAKEFNPRSFSQ, A = wild type
[8] = prey ATXN2, TLNPNAKEFNPRSF(averaged) over the two overlapping peptides, N = wild type
[9] = prey ATXN2, peptide KSTLNPNAKEFNPRSF, F = wild type
[10] = prey ATXN2, TLNPNAKEFNPRSF(averaged) over the two overlapping peptides, F = wild type
[11] = prey ATXN2, peptide TLNPNAKEFNPRSFSQ, K = wild type
[12] = prey ATXN2, peptide KSTLNPNAKEFNPRSF, A = wild type
[13] = prey ATXN2, TLNPNAKEFNPRSF(averaged) over the two overlapping peptides, S = wild type
[14] = prey ATXN2, peptide KSTLNPNAKEFNPRSF, L = wild type
[15] = prey ATXN2, peptide TLNPNAKEFNPRSFSQ, F = wild type
[16] = prey ATXN2, peptide KSTLNPNAKEFNPRSF, S = wild type

KSTLNPNAKEFNPRSF N5L (KSTLLPNAKEFNPRSF)
DMS-derived PSSM value, position N5 [1]: 0

KSTLNPNAKEFNPRSF N5M (KSTLMPNAKEFNPRSF)
DMS-derived PSSM value, position N5 [1]: 0

TLNPNAKEFNPRSF(averaged) R12F (TLNPNAKEFNPFSF)
DMS-derived PSSM value (averaged), position R12 [2]: 0.0319

TLNPNAKEFNPRSFSQ R12N (TLNPNAKEFNPNSFSQ)
DMS-derived PSSM value, position R12 (prey ATXN2, peptide TLNPNAKEFNPRSFSQ, R = wild type): 0.04731

TLNPNAKEFNPRSF(averaged) E8D (TLNPNAKDFNPRSF)
DMS-derived PSSM value (averaged), position E8 [3]: 0

KSTLNPNAKEFNPRSF N12E (KSTLNPNAKEFEPRSF)
DMS-derived PSSM value, position N12 [1]: 0.06073

TLNPNAKEFNPRSFSQ P11A (TLNPNAKEFNARSFSQ)
DMS-derived PSSM value, position P11 [4]: 0.0003099

TLNPNAKEFNPRSFSQ P4L (TLNLNAKEFNPRSFSQ)
DMS-derived PSSM value, position P4 [4]: 0.05708

TLNPNAKEFNPRSF(averaged) P11L (TLNPNAKEFNLRSF)
DMS-derived PSSM value (averaged), position P11 [5]: 0.01529

TLNPNAKEFNPRSFSQ N3F (TLFPNAKEFNPRSFSQ)
DMS-derived PSSM value, position N3 [6]: 0

TLNPNAKEFNPRSFSQ L2S (TSNPNAKEFNPRSFSQ)
DMS-derived PSSM value, position L2 (prey ATXN2, peptide TLNPNAKEFNPRSFSQ, L = wild type): 0

TLNPNAKEFNPRSFSQ S15M (TLNPNAKEFNPRSFMQ)
DMS-derived PSSM value, position S15 (prey ATXN2, peptide TLNPNAKEFNPRSFSQ, S = wild type): 0.1078

TLNPNAKEFNPRSFSQ A6R (TLNPNRKEFNPRSFSQ)
DMS-derived PSSM value, position A6 [7]: 0

KSTLNPNAKEFNPRSF T3R (KSRLNPNAKEFNPRSF)
DMS-derived PSSM value, position T3 (prey ATXN2, peptide KSTLNPNAKEFNPRSF, T = wild type): 0

TLNPNAKEFNPRSF(averaged) N5V (TLNPVAKEFNPRSF)
DMS-derived PSSM value (averaged), position N5 [8]: 0.05544

KSTLNPNAKEFNPRSF N12M (KSTLNPNAKEFMPRSF)
DMS-derived PSSM value, position N12 [1]: 0.08333

KSTLNPNAKEFNPRSF F16L (KSTLNPNAKEFNPRSL)
DMS-derived PSSM value, position F16 [9]: 0.2967

TLNPNAKEFNPRSF(averaged) N3T (TLTPNAKEFNPRSF)
DMS-derived PSSM value (averaged), position N3 [8]: 0.009966

TLNPNAKEFNPRSF(averaged) P4G (TLNGNAKEFNPRSF)
DMS-derived PSSM value (averaged), position P4 [5]: 0.00705

TLNPNAKEFNPRSF(averaged) F14H (TLNPNAKEFNPRSH)
DMS-derived PSSM value (averaged), position F14 [10]: 0.06346

TLNPNAKEFNPRSFSQ N10G (TLNPNAKEFGPRSFSQ)
DMS-derived PSSM value, position N10 [6]: 0.01946

KSTLNPNAKEFNPRSF P6N (KSTLNNNAKEFNPRSF)
DMS-derived PSSM value, position P6 (prey ATXN2, peptide KSTLNPNAKEFNPRSF, P = wild type): 0

TLNPNAKEFNPRSFSQ K7G (TLNPNAGEFNPRSFSQ)
DMS-derived PSSM value, position K7 [11]: 0.01102

TLNPNAKEFNPRSF(averaged) F9A (TLNPNAKEANPRSF)
DMS-derived PSSM value (averaged), position F9 [10]: 0

TLNPNAKEFNPRSF(averaged) F9Q (TLNPNAKEQNPRSF)
DMS-derived PSSM value (averaged), position F9 [10]: 0

TLNPNAKEFNPRSF(averaged) F9N (TLNPNAKENNPRSF)
DMS-derived PSSM value (averaged), position F9 [10]: 0.04813

KSTLNPNAKEFNPRSF A8R (KSTLNPNRKEFNPRSF)
DMS-derived PSSM value, position A8 [12]: 0

TLNPNAKEFNPRSFSQ N10A (TLNPNAKEFAPRSFSQ)
DMS-derived PSSM value, position N10 [6]: 0.03895

TLNPNAKEFNPRSF(averaged) S13Y (TLNPNAKEFNPRYF)
DMS-derived PSSM value (averaged), position S13 [13]: 0.0362

KSTLNPNAKEFNPRSF N5D (KSTLDPNAKEFNPRSF)
DMS-derived PSSM value, position N5 [1]: 0

TLNPNAKEFNPRSFSQ A6F (TLNPNFKEFNPRSFSQ)
DMS-derived PSSM value, position A6 [7]: 0

TLNPNAKEFNPRSFSQ N10V (TLNPNAKEFVPRSFSQ)
DMS-derived PSSM value, position N10 [6]: 0.0007642

KSTLNPNAKEFNPRSF A8M (KSTLNPNMKEFNPRSF)
DMS-derived PSSM value, position A8 [12]: 0

TLNPNAKEFNPRSF(averaged) N10H (TLNPNAKEFHPRSF)
DMS-derived PSSM value (averaged), position N10 [8]: 0.03178

TLNPNAKEFNPRSF(averaged) L2K (TKNPNAKEFNPRSF)
DMS-derived PSSM value (averaged), position L2 (prey ATXN2, TLNPNAKEFNPRSF(averaged) over the two overlapping peptides, L = wild type): 0.0007818

TLNPNAKEFNPRSFSQ A6E (TLNPNEKEFNPRSFSQ)
DMS-derived PSSM value, position A6 [7]: 0

TLNPNAKEFNPRSF(averaged) S13K (TLNPNAKEFNPRKF)
DMS-derived PSSM value (averaged), position S13 [13]: 0.003966

KSTLNPNAKEFNPRSF L4Q (KSTQNPNAKEFNPRSF)
DMS-derived PSSM value, position L4 [14]: 0

TLNPNAKEFNPRSFSQ F14Y (TLNPNAKEFNPRSYSQ)
DMS-derived PSSM value, position F14 [15]: 0.07249

TLNPNAKEFNPRSF(averaged) N3Q (TLQPNAKEFNPRSF)
DMS-derived PSSM value (averaged), position N3 [8]: 0.0275

TLNPNAKEFNPRSFSQ N10R (TLNPNAKEFRPRSFSQ)
DMS-derived PSSM value, position N10 [6]: 0.03785

KSTLNPNAKEFNPRSF R14P (KSTLNPNAKEFNPPSF)
DMS-derived PSSM value, position R14 (prey ATXN2, peptide KSTLNPNAKEFNPRSF, R = wild type): 0.00803

TLNPNAKEFNPRSFSQ P11S (TLNPNAKEFNSRSFSQ)
DMS-derived PSSM value, position P11 [4]: 0.03014

KSTLNPNAKEFNPRSF F16Y (KSTLNPNAKEFNPRSY)
DMS-derived PSSM value, position F16 [9]: 0.101

KSTLNPNAKEFNPRSF N7V (KSTLNPVAKEFNPRSF)
DMS-derived PSSM value, position N7 [1]: 0.01745

TLNPNAKEFNPRSF(averaged) E8Q (TLNPNAKQFNPRSF)
DMS-derived PSSM value (averaged), position E8 [3]: 0.02477

TLNPNAKEFNPRSF(averaged) R12I (TLNPNAKEFNPISF)
DMS-derived PSSM value (averaged), position R12 [2]: 0.04426

TLNPNAKEFNPRSFSQ F14S (TLNPNAKEFNPRSSSQ)
DMS-derived PSSM value, position F14 [15]: 0.004424

KSTLNPNAKEFNPRSF S15D (KSTLNPNAKEFNPRDF)
DMS-derived PSSM value, position S15 [16]: 0

TLNPNAKEFNPRSF(averaged) A6W (TLNPNWKEFNPRSF)
DMS-derived PSSM value (averaged), position A6 (prey ATXN2, TLNPNAKEFNPRSF(averaged) over the two overlapping peptides, A = wild type): 0

TLNPNAKEFNPRSF(averaged) P11F (TLNPNAKEFNFRSF)
DMS-derived PSSM value (averaged), position P11 [5]: 0.06425

TLNPNAKEFNPRSF(averaged) S13G (TLNPNAKEFNPRGF)
DMS-derived PSSM value (averaged), position S13 [13]: 0.08376

KSTLNPNAKEFNPRSF N12H (KSTLNPNAKEFHPRSF)
DMS-derived PSSM value, position N12 [1]: 0.04066

TLNPNAKEFNPRSFSQ K7Y (TLNPNAYEFNPRSFSQ)
DMS-derived PSSM value, position K7 [11]: 0.472

TLNPNAKEFNPRSF(averaged) R12Y (TLNPNAKEFNPYSF)
DMS-derived PSSM value (averaged), position R12 [2]: 0.04827

KSTLNPNAKEFNPRSF F16I (KSTLNPNAKEFNPRSI)
DMS-derived PSSM value, position F16 [9]: 0.0559

KSTLNPNAKEFNPRSF N5R (KSTLRPNAKEFNPRSF)
DMS-derived PSSM value, position N5 [1]: 0

TLNPNAKEFNPRSF(averaged) P4N (TLNNNAKEFNPRSF)
DMS-derived PSSM value (averaged), position P4 [5]: 0.0005247

KSTLNPNAKEFNPRSF A8N (KSTLNPNNKEFNPRSF)
DMS-derived PSSM value, position A8 [12]: 0

TLNPNAKEFNPRSF(averaged) N3P (TLPPNAKEFNPRSF)
DMS-derived PSSM value (averaged), position N3 [8]: 0

TLNPNAKEFNPRSFSQ N10M (TLNPNAKEFMPRSFSQ)
DMS-derived PSSM value, position N10 [6]: 0.1

KSTLNPNAKEFNPRSF S2H (KHTLNPNAKEFNPRSF)
DMS-derived PSSM value, position S2 [16]: 0.0308

TLNPNAKEFNPRSFSQ P4V (TLNVNAKEFNPRSFSQ)
DMS-derived PSSM value, position P4 [4]: 0.4281

TLNPNAKEFNPRSFSQ T1P (PLNPNAKEFNPRSFSQ)
DMS-derived PSSM value, position T1 (prey ATXN2, peptide TLNPNAKEFNPRSFSQ, T = wild type): 0.04902

TLNPNAKEFNPRSF(averaged) P4L (TLNLNAKEFNPRSF)
DMS-derived PSSM value (averaged), position P4 [5]: 0.1003

KSTLNPNAKEFNPRSF K9A (KSTLNPNAAEFNPRSF)
DMS-derived PSSM value, position K9 (prey ATXN2, peptide KSTLNPNAKEFNPRSF, K = wild type): 0.002649

TLNPNAKEFNPRSFSQ F14V (TLNPNAKEFNPRSVSQ)
DMS-derived PSSM value, position F14 [15]: 0.06499

KSTLNPNAKEFNPRSF L4H (KSTHNPNAKEFNPRSF)
DMS-derived PSSM value, position L4 [14]: 0
